ChEMBL document CHEMBL4219034, “Synthesis, antimicrobial activity, structure-activity relationship and cytotoxic studies of a new series of functionalized (Z)-3-(2-oxo-2-substituted ethylidene)-3,4-dihydro-2H-benzo[b][1,4]oxazin-2-ones” (Bioorg Med Chem Lett, 2017)
In brackets after ≈: the same amount, converted by molar mass. Activity calls are given as the source filed them. No cut-off for these calls is given here.

How the values were obtained:
Assay type in all cases: functional
Trichoderma reesei [1] = assay: Antifungal activity against Trichoderma reesei ATCC 13631 incubated for 24 hrs by serial dilution method
Fusarium oxysporum [2] = assay: Antifungal activity against Fusarium oxysporum ATCC 62506 incubated for 24 hrs by serial dilution method
Talaromyces funiculosus [3] = assay: Antifungal activity against Penicillium funiculosum ATCC 11797 at 100 ug/ml incubated for 72 hrs by agar disc diffusion assay; conditions: for zone of inhibition at 100 µg/mL: ATCC 11797, 72 h, read-out: IZ
Trichoderma reesei [4] = assay: Antifungal activity against Trichoderma reesei ATCC 13631 at 100 ug/ml incubated for 72 hrs by agar disc diffusion assay; conditions: for zone of inhibition at 100 µg/mL: ATCC 13631, 72 h, read-out: IZ
Talaromyces funiculosus [5] = assay: Antifungal activity against Penicillium funiculosum ATCC 11797 incubated for 24 hrs by serial dilution method
Fusarium oxysporum [6] = assay: Antifungal activity against Fusarium oxysporum ATCC 62506 at 100 ug/ml incubated for 72 hrs by agar disc diffusion assay; conditions: for zone of inhibition at 100 µg/mL: ATCC 62506, 72 h, read-out: IZ
Aspergillus niger [7] = assay: Antifungal activity against Aspergillus niger ATCC 9029 incubated for 24 hrs by serial dilution method
Aspergillus niger [8] = assay: Antifungal activity against Aspergillus niger ATCC 9029 at 100 ug/ml incubated for 72 hrs by agar disc diffusion assay; conditions: for zone of inhibition at 100 µg/mL: ATCC 9029, 72 h, read-out: IZ
Streptomyces griseus [9] = assay: Antibacterial activity against Streptomyces griseus MTCC 4734 incubated for 24 hrs by serial dilution method
Staphylococcus aureus [10] = assay: Antibacterial activity against Staphylococcus aureus MTCC 3381 incubated for 24 hrs by serial dilution method
Escherichia coli [11] = assay: Antibacterial activity against Escherichia coli MTCC 443 incubated for 24 hrs by serial dilution method
Bacillus subtilis [12] = assay: Antibacterial activity against Bacillus subtilis MTCC 10619 at 100 ug/ml incubated for 12 hrs by agar disc diffusion assay; conditions: for zone of inhibition at 100 µg/mL: MTCC 10619, 12 h, read-out: IZ
Bacillus subtilis [13] = assay: Antibacterial activity against Bacillus subtilis MTCC 10619 incubated for 24 hrs by serial dilution method
Escherichia coli [14] = assay: Antibacterial activity against Escherichia coli MTCC 443 at 100 ug/ml incubated for 12 hrs by agar disc diffusion assay; conditions: for zone of inhibition at 100 µg/mL: MTCC 443, 12 h, read-out: IZ
Staphylococcus aureus [15] = assay: Antibacterial activity against Staphylococcus aureus MTCC 3381 at 100 ug/ml incubated for 12 hrs by agar disc diffusion assay; conditions: for zone of inhibition at 100 µg/mL: MTCC 3381, 12 h, read-out: IZ
Streptomyces griseus [16] = assay: Antibacterial activity against Streptomyces griseus MTCC 4734 at 100 ug/ml incubated for 12 hrs by agar disc diffusion assay; conditions: for zone of inhibition at 100 µg/mL: MTCC 4734, 12 h, read-out: IZ

Structure (SMILES) | MIC (Fusarium oxysporum [2]; ATCC 62506, 24 h) [µg/mL] | zone of inhibition at 100 µg/mL (Fusarium oxysporum [6]) [mm] | MIC (Trichoderma reesei [1]) | MIC (Streptomyces griseus [9]) | MIC (Fusarium oxysporum [2]) | inhibition zone (IZ) (Talaromyces funiculosus [3]) | inhibition zone (IZ) (Trichoderma reesei [4]) | MIC (Staphylococcus aureus [10]) | inhibition zone (IZ) (Bacillus subtilis [12]) | MIC (Talaromyces funiculosus [5]) | inhibition zone (IZ) (Fusarium oxysporum [6]) | MIC (Aspergillus niger [7]) | MIC (Bacillus subtilis [13]) | inhibition zone (IZ) (Aspergillus niger [8]) | inhibition zone (IZ) (Staphylococcus aureus [15]) | inhibition zone (IZ) (Streptomyces griseus [16]) | MIC (Streptomyces griseus [9]; MTCC 4734, 24 h) [µg/mL] | MIC (Escherichia coli [11]; MTCC 443, 24 h) [µg/mL] | zone of inhibition at 100 µg/mL (Escherichia coli [14]) [mm] | zone of inhibition at 100 µg/mL (Streptomyces griseus [16]) [mm] | further results
CC(=O)N1CCN(c2ccc(OCC3COC(Cn4ccnc4)(c4ccc(Cl)cc4Cl)O3)cc2)CC1 (stereo unspecified) [KETOCONAZOLE] | 12.5 (≈ 23.5 µM) | 20 |  |  |  |  |  |  |  |  |  |  |  |  |  |  |  |  |  |  | MIC (Trichoderma reesei [1]; ATCC 13631, 24 h): 25 µg/mL (≈ 47 µM); zone of inhibition at 100 µg/mL (Talaromyces funiculosus [3]): 22 mm; zone of inhibition at 100 µg/mL (Trichoderma reesei [4]): 24 mm; MIC (Talaromyces funiculosus [5]; ATCC 11797, 24 h): 25 µg/mL (≈ 47 µM); MIC (Aspergillus niger [7]; ATCC 9029, 24 h): 12.5 µg/mL (≈ 23.5 µM); zone of inhibition at 100 µg/mL (Aspergillus niger [8]): 18 mm
Cc1ccc2c(c1)N/C(=C\C(=O)c1cccc3ccccc13)C(=O)O2 |  |  | inactive | inactive | inactive | inactive | inactive | inactive | inactive | inactive | inactive | inactive | inactive | inactive | inactive | inactive |  |  |  |  | MIC (Escherichia coli [11]): inactive; inhibition zone (IZ) (Escherichia coli [14]): inactive
O=C(N[C@H](CO)[C@H](O)c1ccc([N+](=O)[O-])cc1)C(Cl)Cl [CHLORAMPHENICOL] |  |  |  |  |  |  |  |  |  |  |  |  |  |  |  |  | 3.12 (≈ 9.67 µM) | 6.25 (≈ 19.3 µM) | 32 | 28 | MIC (Staphylococcus aureus [10]; MTCC 3381, 24 h): 6.25 µg/mL (≈ 19.3 µM); zone of inhibition at 100 µg/mL (Bacillus subtilis [12]): 26 mm; MIC (Bacillus subtilis [13]; MTCC 10619, 24 h): 6.25 µg/mL (≈ 19.3 µM); zone of inhibition at 100 µg/mL (Staphylococcus aureus [15]): 22 mm
O=C1Oc2ccc([N+](=O)[O-])cc2N/C1=C\C(=O)c1cccc2ccccc12 | 50 (≈ 139 µM) | 10 | inactive |  |  | inactive | inactive | inactive |  | inactive |  | inactive |  | inactive | inactive |  | 100 (≈ 278 µM) | 100 (≈ 278 µM) | 10 | 4 | zone of inhibition at 100 µg/mL (Bacillus subtilis [12]): 4 mm; MIC (Bacillus subtilis [13]; MTCC 10619, 24 h): 100 µg/mL (≈ 278 µM)
Cc1ccc2c(c1)N/C(=C\C(=O)c1ccc(-c3ccccc3)cc1)C(=O)O2 |  |  | inactive |  | inactive | inactive | inactive |  |  | inactive | inactive | inactive |  | inactive |  |  | 12.5 (≈ 35.2 µM) | 25 (≈ 70.3 µM) | 20 | 18 | MIC (Staphylococcus aureus [10]; MTCC 3381, 24 h): 12.5 µg/mL (≈ 35.2 µM); zone of inhibition at 100 µg/mL (Bacillus subtilis [12]): 12 mm; MIC (Bacillus subtilis [13]; MTCC 10619, 24 h): 25 µg/mL (≈ 70.3 µM); zone of inhibition at 100 µg/mL (Staphylococcus aureus [15]): 11 mm
O=C1Oc2ccccc2N/C1=C\C(=O)c1cccc2ccccc12 |  |  |  | inactive | inactive | inactive |  | inactive | inactive | inactive | inactive |  | inactive |  | inactive | inactive |  |  |  |  | MIC (Trichoderma reesei [1]; ATCC 13631, 24 h): 100 µg/mL (≈ 317 µM); zone of inhibition at 100 µg/mL (Trichoderma reesei [4]): 4 mm; MIC (Escherichia coli [11]): inactive; MIC (Aspergillus niger [7]; ATCC 9029, 24 h): 100 µg/mL (≈ 317 µM); zone of inhibition at 100 µg/mL (Aspergillus niger [8]): 4 mm; inhibition zone (IZ) (Escherichia coli [14]): inactive
O=C1Oc2ccc(Cl)cc2N/C1=C\C(=O)c1cccc2ccccc12 |  |  | inactive | inactive | inactive | inactive | inactive | inactive | inactive | inactive | inactive | inactive | inactive | inactive | inactive | inactive |  |  |  |  | MIC (Escherichia coli [11]): inactive; inhibition zone (IZ) (Escherichia coli [14]): inactive
CC1(C)S[C@@H]2[C@H](NC(=O)[C@H](N)c3ccccc3)C(=O)N2[C@H]1C(=O)O [AMPICILLIN] |  |  |  |  |  |  |  |  |  |  |  |  |  |  |  |  | 12.5 (≈ 35.8 µM) | 12.5 (≈ 35.8 µM) | 24 | 20 | MIC (Staphylococcus aureus [10]; MTCC 3381, 24 h): 12.5 µg/mL (≈ 35.8 µM); zone of inhibition at 100 µg/mL (Bacillus subtilis [12]): 18 mm; MIC (Bacillus subtilis [13]; MTCC 10619, 24 h): 25 µg/mL (≈ 71.5 µM); zone of inhibition at 100 µg/mL (Staphylococcus aureus [15]): 11 mm
O=C1Oc2cc([N+](=O)[O-])ccc2N/C1=C\C(=O)c1ccc(-c2ccccc2)cc1 | 25 (≈ 64.7 µM) | 18 | inactive |  |  | inactive | inactive | inactive |  | inactive |  | inactive |  | inactive | inactive |  | 50 (≈ 129 µM) | 25 (≈ 64.7 µM) | 12 | 10 | zone of inhibition at 100 µg/mL (Bacillus subtilis [12]): 8 mm; MIC (Bacillus subtilis [13]; MTCC 10619, 24 h): 100 µg/mL (≈ 259 µM)
O=C1Oc2ccccc2N/C1=C\C(=O)C1CC1 | 100 (≈ 436 µM) | 8 |  | inactive |  | inactive |  |  | inactive | inactive |  | inactive | inactive | inactive |  | inactive |  | 50 (≈ 218 µM) | 10 |  | MIC (Trichoderma reesei [1]; ATCC 13631, 24 h): 100 µg/mL (≈ 436 µM); zone of inhibition at 100 µg/mL (Trichoderma reesei [4]): 4 mm; MIC (Staphylococcus aureus [10]; MTCC 3381, 24 h): 100 µg/mL (≈ 436 µM); zone of inhibition at 100 µg/mL (Staphylococcus aureus [15]): 4 mm
O=C1Oc2ccccc2N/C1=C\C(=O)c1ccc(-c2ccccc2)cc1 |  |  | inactive | inactive | inactive |  | inactive | inactive | inactive |  | inactive |  | inactive |  | inactive | inactive |  | 25 (≈ 73.2 µM) | 14 |  | zone of inhibition at 100 µg/mL (Talaromyces funiculosus [3]): 14 mm; MIC (Talaromyces funiculosus [5]; ATCC 11797, 24 h): 25 µg/mL (≈ 73.2 µM); MIC (Aspergillus niger [7]; ATCC 9029, 24 h): 100 µg/mL (≈ 293 µM); zone of inhibition at 100 µg/mL (Aspergillus niger [8]): 4 mm
O=C1Oc2ccc(Cl)cc2N/C1=C\C(=O)c1ccc(-c2ccccc2)cc1 |  |  | inactive | inactive | inactive |  | inactive | inactive | inactive |  | inactive |  | inactive |  | inactive | inactive |  |  |  |  | zone of inhibition at 100 µg/mL (Talaromyces funiculosus [3]): 12 mm; MIC (Escherichia coli [11]): inactive; MIC (Talaromyces funiculosus [5]; ATCC 11797, 24 h): 25 µg/mL (≈ 66.5 µM); MIC (Aspergillus niger [7]; ATCC 9029, 24 h): 25 µg/mL (≈ 66.5 µM); zone of inhibition at 100 µg/mL (Aspergillus niger [8]): 8 mm; inhibition zone (IZ) (Escherichia coli [14]): inactive
Cc1ccc2c(c1)N/C(=C\C(=O)c1ccc(C3CCCCC3)cc1)C(=O)O2 | 50 (≈ 138 µM) | 12 | inactive | inactive |  | inactive | inactive | inactive | inactive | inactive |  |  | inactive | inactive | inactive | inactive |  |  |  |  | MIC (Escherichia coli [11]): inactive; MIC (Aspergillus niger [7]; ATCC 9029, 24 h): 100 µg/mL (≈ 277 µM); inhibition zone (IZ) (Escherichia coli [14]): inactive
O=C1Oc2ccc(Cl)cc2N/C1=C\C(=O)c1ccc(C2CCCCC2)cc1 | 25 (≈ 65.5 µM) | 14 |  |  |  | inactive |  | inactive | inactive | inactive |  |  | inactive |  | inactive |  | 100 (≈ 262 µM) |  |  | 6 | MIC (Trichoderma reesei [1]; ATCC 13631, 24 h): 25 µg/mL (≈ 65.5 µM); zone of inhibition at 100 µg/mL (Trichoderma reesei [4]): 16 mm; MIC (Escherichia coli [11]): inactive; MIC (Aspergillus niger [7]; ATCC 9029, 24 h): 25 µg/mL (≈ 65.5 µM); zone of inhibition at 100 µg/mL (Aspergillus niger [8]): 10 mm; inhibition zone (IZ) (Escherichia coli [14]): inactive
Cc1ccc2c(c1)N/C(=C\C(=O)C1CC1)C(=O)O2 |  |  | inactive |  | inactive | inactive | inactive |  | inactive | inactive | inactive | inactive | inactive | inactive |  |  | 100 (≈ 411 µM) | 100 (≈ 411 µM) | 8 | 6 | MIC (Staphylococcus aureus [10]; MTCC 3381, 24 h): 12.5 µg/mL (≈ 51.4 µM); zone of inhibition at 100 µg/mL (Staphylococcus aureus [15]): 14 mm
